Reference: PubChem BioAssay AID256 (DTP/NCI, 2004)
“And” between values parts separate entries of the source, which are not always exact repeats. Equal values may be shown once. Toxic doses and inconclusive results are not listed. How the source made its calls: active means survival T/C of 150% or more; inactive means T/C below 125% in these data. Residues, ends and D or L forms follow the SMILES beside them. *: point of attachment. Trt = c1ccc(C(c2ccccc2)(c2ccccc2)*)cc1; Boc = CC(C)(C)OC(=O)*

System: CD2F1 mice, L1210 leukemia ip, survival T/C
Assay: NCI In Vivo Anticancer Drug Screen. Data for tumor model L1210 Leukemia (intraperitoneal) in CD2F1 (CDF1) mice
Settings: higher = longer survival
Method in brief: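 Tumor-bearing mice (transplanted tumor) were split into treated and vehicle control groups, and the measured endpoint of each treated group was divided by that of its vehicle controls.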

[1] = endpoint: mean survival time, dose: 100.0 mg/kg/injection, schedule: Q01DX001 (ip), vehicle: saline
[2] = endpoint: mean survival time, dose: 200.0 mg/kg/injection, schedule: Q01DX001 (ip), vehicle: saline
[3] = endpoint: mean survival time, dose: 100.0 mg/kg/injection, schedule: Q01DX009 (ip), vehicle: saline with Tween-80
[4] = endpoint: mean survival time, dose: 100.0 mg/kg/injection, schedule: Q04DX003 (ip), vehicle: saline with Tween-80
[5] = endpoint: mean survival time, dose: 200.0 mg/kg/injection, schedule: Q01DX009 (ip), vehicle: saline with Tween-80
[6] = endpoint: mean survival time, dose: 200.0 mg/kg/injection, schedule: Q04DX003 (ip), vehicle: saline with Tween-80
[7] = endpoint: mean survival time, dose: 400.0 mg/kg/injection, schedule: Q04DX003 (ip), vehicle: saline with Tween-80
[8] = endpoint: mean survival time, dose: 400.0 mg/kg/injection, schedule: Q01DX001 (ip), vehicle: saline

Measured: T/C

Cc1n[nH]n(Cc2ccccc2)c1=O
inactive: endpoint: mean survival time, dose: 25.0 mg/kg/injection, schedule: Q01DX005 (ip), vehicle: saline with Tween-80 97 % of control | endpoint: mean survival time, dose: 50.0 mg/kg/injection, schedule: Q01DX005 (ip), vehicle: saline with Tween-80 99 % of control | endpoint: mean survival time, dose: 100.0 mg/kg/injection, schedule: Q01DX005 (ip), vehicle: saline with Tween-80 97 % of control | endpoint: mean survival time, dose: 200.0 mg/kg/injection, schedule: Q01DX005 (ip), vehicle: saline with Tween-80 99 % of control | endpoint: mean survival time, dose: 400.0 mg/kg/injection, schedule: Q01DX005 (ip), vehicle: saline with Tween-80 97 % of control

O/N=C/c1ccc(O)cc1O
inactive: [1] 100 % of control | [2] 102 % of control

CSc1nc(=O)[nH]c2c1c1c(N)ncnc1n2C1OC(CO)C(O)C1O (stereo not given)
inactive: endpoint: mean survival time, dose: 12.5 mg/kg/injection, schedule: Q01DX005 (ip), vehicle: distilled water + Tween-80 104 % of control | endpoint: mean survival time, dose: 25.0 mg/kg/injection, schedule: Q01DX005 (ip), vehicle: distilled water + Tween-80 97 % of control | endpoint: mean survival time, dose: 50.0 mg/kg/injection, schedule: Q01DX005 (ip), vehicle: distilled water + Tween-80 104 % of control | endpoint: mean survival time, dose: 100.0 mg/kg/injection, schedule: Q01DX005 (ip), vehicle: distilled water + Tween-80 100 % of control | endpoint: mean survival time, dose: 200.0 mg/kg/injection, schedule: Q01DX005 (ip), vehicle: distilled water + Tween-80 104 % of control

[Co].[N-]=C=S.[N-]=C=S.[N-]=C=S.[NH2-].[NH2-].[NH2-]
inactive: endpoint: mean survival time, dose: 50.0 mg/kg/injection, schedule: Q01DX001 (ip), vehicle: saline with Tween-80 98 % of control and 101 % of control

CCN(CC)CC(C)(C)CO
inactive: endpoint: mean survival time, dose: 50.0 mg/kg/injection, schedule: Q01DX009 (ip), vehicle: saline with Tween-80 104 % of control | [3] 95 % of control | [4] 92 % of control | [5] 98 % of control | [6] 97 % of control

C[NH-].C[NH-].[Br][Pt][Br].[CH3-].[CH3-]
inactive: endpoint: mean survival time, dose: 1.56 mg/kg/injection, schedule: Q04DX003 (ip), vehicle: saline with Tween-80 97 % of control | endpoint: mean survival time, dose: 3.13 mg/kg/injection, schedule: Q04DX003 (ip), vehicle: saline with Tween-80 97 % of control | endpoint: mean survival time, dose: 6.25 mg/kg/injection, schedule: Q04DX003 (ip), vehicle: saline with Tween-80 104 % of control | endpoint: mean survival time, dose: 12.5 mg/kg/injection, schedule: Q04DX003 (ip), vehicle: saline with Tween-80 93 % of control | endpoint: mean survival time, dose: 25.0 mg/kg/injection, schedule: Q04DX003 (ip), vehicle: saline with Tween-80 89 % of control and 93 % of control | endpoint: mean survival time, dose: 50.0 mg/kg/injection, schedule: Q04DX003 (ip), vehicle: saline with Tween-80 102 % of control | [4] 100 % of control | [6] 98 % of control | [7] 94 % of control

CC1=CC2c3cccc4[nH]cc(c34)CC2N(C)C1 (stereo not given)
inactive: endpoint: median survival time, dose: 1.25 mg/kg/injection, schedule: Q01DX009 (ip), vehicle: suspension in saline 101 % of control | endpoint: median survival time, dose: 2.5 mg/kg/injection, schedule: Q01DX009 (ip), vehicle: suspension in saline 101 % of control | endpoint: median survival time, dose: 5.0 mg/kg/injection, schedule: Q01DX009 (ip), vehicle: suspension in saline 101 % of control | endpoint: median survival time, dose: 10.0 mg/kg/injection, schedule: Q01DX009 (ip), vehicle: suspension in saline 101 % of control | endpoint: median survival time, dose: 20.0 mg/kg/injection, schedule: Q01DX009 (ip), vehicle: suspension in saline 98 % of control

O=C(/C(=N/N(C(=O)c1ccccc1)c1ccccc1)c1ccccc1)c1ccccc1
inactive: [4] 102 % of control | [6] 88 % of control | [7] 95 % of control

c1ccc(-c2nc(-c3ccccc3)n3nc4c(c3c2-c2ccccc2)CCCCCC4)cc1
inactive: [1] 112 % of control | [2] 108 % of control | [8] 87 % of control

CCCCOc1cc(C(=O)NCCN(CC)CC)c2ccccc2n1
inactive: endpoint: mean survival time, dose: 6.25 mg/kg/injection, schedule: Q01DX009 (ip), vehicle: saline with Tween-80 102 % of control | endpoint: mean survival time, dose: 12.5 mg/kg/injection, schedule: Q01DX009 (ip), vehicle: saline with Tween-80 108 % of control | endpoint: mean survival time, dose: 25.0 mg/kg/injection, schedule: Q01DX009 (ip), vehicle: saline with Tween-80 103 % of control

CC1C=CCC2C(=O)OC(=O)C12 (stereo not given)
inactive: endpoint: mean survival time, dose: 100.0 mg/kg/injection, schedule: Q04DX003 (ip), vehicle: saline 94 % of control | endpoint: mean survival time, dose: 200.0 mg/kg/injection, schedule: Q04DX003 (ip), vehicle: saline 95 % of control | endpoint: mean survival time, dose: 400.0 mg/kg/injection, schedule: Q04DX003 (ip), vehicle: saline 101 % of control

CCCC(CCC)(CNC(C)=O)C1CCCCC1
inactive: endpoint: mean survival time, dose: 75.0 mg/kg/injection, schedule: Q01DX001 (ip), vehicle: saline 98 % of control | endpoint: mean survival time, dose: 150.0 mg/kg/injection, schedule: Q01DX001 (ip), vehicle: saline 88 % of control | endpoint: mean survival time, dose: 300.0 mg/kg/injection, schedule: Q01DX001 (ip), vehicle: saline 87 % of control

CCOC(=O)CSc1ccccc1
inactive: endpoint: mean survival time, dose: 25.0 mg/kg/injection, schedule: Q01DX005 (ip), vehicle: Klucel (hydroxypropylcellulose) (HPC) 93 % of control | endpoint: mean survival time, dose: 50.0 mg/kg/injection, schedule: Q01DX005 (ip), vehicle: Klucel (hydroxypropylcellulose) (HPC) 95 % of control | [1] 102 % of control | endpoint: mean survival time, dose: 100.0 mg/kg/injection, schedule: Q01DX005 (ip), vehicle: Klucel (hydroxypropylcellulose) (HPC) 102 % of control | [2] 100 % of control | endpoint: mean survival time, dose: 200.0 mg/kg/injection, schedule: Q01DX005 (ip), vehicle: Klucel (hydroxypropylcellulose) (HPC) 95 % of control | [8] 100 % of control | endpoint: mean survival time, dose: 400.0 mg/kg/injection, schedule: Q01DX005 (ip), vehicle: Klucel (hydroxypropylcellulose) (HPC) 95 % of control

CCCCCCCCCCCCOP(OCC)OCCCCCCCCCCCC
inactive: endpoint: mean survival time, dose: 25.0 mg/kg/injection, schedule: Q04DX002 (ip), vehicle: saline with Tween-80 104 % of control | endpoint: mean survival time, dose: 50.0 mg/kg/injection, schedule: Q04DX002 (ip), vehicle: saline with Tween-80 101 % of control | endpoint: mean survival time, dose: 100.0 mg/kg/injection, schedule: Q04DX002 (ip), vehicle: saline with Tween-80 96 % of control and 101 % of control

CC=C(C(=O)OCC)C(=O)OCC
inactive: [1] 95 % of control | [2] 98 % of control | [8] 107 % of control

CCCCSC#N
inactive: endpoint: mean survival time, dose: 7.5 mg/kg/injection, schedule: Q01DX009 (ip), vehicle: saline with Tween-80 95 % of control | endpoint: mean survival time, dose: 15.0 mg/kg/injection, schedule: Q01DX009 (ip), vehicle: saline with Tween-80 100 % of control | endpoint: mean survival time, dose: 30.0 mg/kg/injection, schedule: Q01DX009 (ip), vehicle: saline with Tween-80 91 % of control

COC(=O)C(C(=O)OC)C(Br)(C(=O)OC)C(=O)OC
inactive: [3] 98 % of control | [4] 91 % of control | [5] 103 % of control | [6] 91 % of control | [7] 95 % of control

CN1CCOc2ccccc2OCCOCCOc2ccccc2OCC1
inactive: endpoint: mean survival time, dose: 100.0 mg/kg/injection, schedule: Q01DX009 (ip), vehicle: Klucel (hydroxypropylcellulose) (HPC) 105 % of control | endpoint: mean survival time, dose: 200.0 mg/kg/injection, schedule: Q01DX009 (ip), vehicle: Klucel (hydroxypropylcellulose) (HPC) 106 % of control

CC(C)(C)OC(=O)NCCCCC(NC(=O)CNC(=O)C(CSC(c1ccccc1)(c1ccccc1)c1ccccc1)NC(=O)OC(C)(C)C)C(=O)O (stereo not given) (Boc-Cys(Trt)-Gly-Lys(Boc)-OH; configuration not given here)
inactive: endpoint: mean survival time, dose: 100.0 mg/kg/injection, schedule: Q04DX003 (ip), vehicle: saline sonified 86 % of control

CCC[CH2][Sn]1([CH2]CCC)[N](S(=O)(=O)c2ccc(C)cc2)c2ccccc2[N]1S(=O)(=O)c1ccc(C)cc1
inactive: endpoint: mean survival time, dose: 3.13 mg/kg/injection, schedule: Q04DX002 (ip), vehicle: saline with Tween-80 94 % of control | endpoint: mean survival time, dose: 6.25 mg/kg/injection, schedule: Q04DX002 (ip), vehicle: saline with Tween-80 102 % of control | endpoint: mean survival time, dose: 12.5 mg/kg/injection, schedule: Q04DX002 (ip), vehicle: saline with Tween-80 94 % of control
